Experimental data from ChEMBL document CHEMBL1201862, “PubChem BioAssay data set” (2004).
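Five concentrations, 48 hours, 96-well plates. GI50 is the concentration that inhibits growth by half.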 Active and inactive are the calls of the source. Rule as the data show it: active = GI50 up to about 1.1 µM and inactive = higher.

Key:
Test in all cases: NCI tumour cell line growth inhibition, 48 h
A498 = test system: A498
ACHN = test system: ACHN
BT-549 = test system: BT-549
CCRF-CEM = test system: CCRF-CEM
HCT-15 = test system: HCT-15
HL-60 = test system: HL-60
HOP-62 = test system: HOP-62
Hs-578T = test system: Hs-578T
IGROV-1 = test system: IGROV-1
KM12 = test system: KM12
M14 = test system: M14
MDA-MB-435 = test system: MDA-MB-435
NCI-H23 = test system: NCI-H23
OVCAR-4 = test system: OVCAR-4
OVCAR-5 = test system: OVCAR-5
OVCAR-8 = test system: OVCAR-8
PC-3 = test system: PC-3
SW-620 = test system: SW-620
TK-10 = test system: TK-10

SMILES	GI50 (A498)	GI50 (ACHN)	GI50 (BT-549)	GI50 (CCRF-CEM)	GI50 (HCT-15)	GI50 (HL-60)	GI50 (HOP-62)	GI50 (Hs-578T)	GI50 (IGROV-1)	GI50 (KM12)	GI50 (M14)	GI50 (MDA-MB-435)	GI50 (NCI-H23)	GI50 (OVCAR-4)	GI50 (OVCAR-5)	GI50 (OVCAR-8)	GI50 (PC-3)	GI50 (SW-620)	GI50 (TK-10)
COc1ccc(/C=C/C(=O)Oc2ccc(/C=C3\CCCCC3=O)cc2)cc1	> 100 µM (inactive)	> 100 µM (inactive)	72.3 µM (inactive)	1.93 µM (inactive)	29.1 µM	12.6 µM (inactive)	23.1 µM (inactive)	> 80.5 µM (inactive)	38.6 µM (inactive)	56.1 µM (inactive)	> 100 µM (inactive)	> 44.6 µM (inactive)	97.1 µM (inactive)	43.2 µM (inactive)	> 100 µM (inactive)	> 75.9 µM (inactive)	> 100 µM (inactive)	> 93.1 µM (inactive)	> 91.6 µM (inactive)
COC(=O)C(CCCCN)NC(=O)C(CCCCN)NC(C)=O.Cc1ccc(C(=O)Nc2ccc(S(=O)(=O)O)c3cc(S(=O)(=O)O)cc(S(=O)(=O)O)c23)cc1NC(=O)c1cccc(NC(=O)Nc2cccc(C(=O)Nc3cc(C(=O)Nc4ccc(S(=O)(=O)O)c5cc(S(=O)(=O)O)cc(S(=O)(=O)O)c45)ccc3C)c2)c1	> 50 µM (inactive)	> 50 µM (inactive)	> 50 µM (inactive)	> 50 µM (inactive)	> 50 µM	> 50 µM (inactive)	–	39.1 µM (inactive)	> 50 µM (inactive)	> 50 µM (inactive)	10.6 µM (inactive)	> 50 µM (inactive)	> 50 µM (inactive)	8.73 µM (inactive)	–	> 50 µM (inactive)	> 50 µM (inactive)	> 50 µM (inactive)	–
COc1ccc(NC2CC(C)N(C(=O)c3ccccc3)O2)cc1 (stereo not given)	–	> 10 µM (inactive)	8.79 µM (inactive)	> 10 µM (inactive)	> 10 µM	9.91 µM (inactive)	> 10 µM (inactive)	> 10 µM (inactive)	> 10 µM (inactive)	–	> 10 µM (inactive)	> 10 µM (inactive)	> 10 µM (inactive)	> 10 µM (inactive)	> 10 µM (inactive)	> 10 µM (inactive)	> 10 µM (inactive)	> 10 µM (inactive)	> 10 µM (inactive)
CC1(O)CC23CC(O)C4(O)C(CC(O)C4(C)C)C(C)(O)C2CCC1C3O (stereo not given)	> 100 µM (inactive)	> 100 µM (inactive)	> 100 µM (inactive)	> 100 µM (inactive)	> 100 µM	> 100 µM (inactive)	–	> 100 µM (inactive)	> 100 µM (inactive)	> 100 µM (inactive)	> 100 µM (inactive)	> 100 µM (inactive)	> 100 µM (inactive)	> 100 µM (inactive)	> 100 µM (inactive)	> 100 µM (inactive)	> 100 µM (inactive)	> 100 µM (inactive)	> 100 µM (inactive)
O=C(/C=C/c1ccc([N+](=O)[O-])cc1)c1nc2ccccc2[nH]1	1.73 µM (inactive)	74.3 µM (inactive)	> 62.8 µM (inactive)	20 µM (inactive)	33 µM	5.2 µM (inactive)	> 34.2 µM (inactive)	> 45.8 µM (inactive)	1.68 µM (inactive)	29.9 µM (inactive)	> 88.9 µM (inactive)	> 72.3 µM (inactive)	–	> 66.1 µM (inactive)	3.54 µM (inactive)	> 70.5 µM (inactive)	> 64.4 µM (inactive)	26.2 µM (inactive)	3.57 µM (inactive)
C[C@]12C=CC(=O)C=C1CC[C@@H]1[C@@H]2CC[C@@]2(C)[C@H]1CC[C@]2(O)C(N)=O	> 100 µM (inactive)	> 100 µM (inactive)	> 100 µM (inactive)	> 100 µM (inactive)	> 100 µM	> 100 µM (inactive)	> 100 µM (inactive)	> 100 µM (inactive)	> 100 µM (inactive)	> 100 µM (inactive)	> 100 µM (inactive)	> 100 µM (inactive)	> 100 µM (inactive)	> 100 µM (inactive)	> 100 µM (inactive)	> 100 µM (inactive)	> 100 µM (inactive)	> 100 µM (inactive)	> 100 µM (inactive)
NNC(=O)c1c(Cl)c(Cl)c(Cl)c(Cl)c1-c1nc2ccccc2[nH]1	15 µM (inactive)	17.1 µM (inactive)	14.9 µM (inactive)	12.5 µM (inactive)	5.07 µM	4.7 µM (inactive)	4.29 µM (inactive)	18.1 µM (inactive)	1.18 µM (inactive)	6.76 µM (inactive)	9.55 µM (inactive)	2.12 µM (inactive)	15.6 µM (inactive)	–	36.7 µM (inactive)	29 µM (inactive)	16.6 µM (inactive)	10 µM (inactive)	21.6 µM (inactive)
Cn1c(NN)nc(-c2ccc([N+](=O)[O-])cc2)c(C#N)c1=O	–	12.2 µM (inactive)	12.7 µM (inactive)	25.4 µM (inactive)	16.4 µM	30.8 µM (inactive)	14.1 µM (inactive)	14.5 µM (inactive)	18.5 µM (inactive)	16.3 µM (inactive)	12.5 µM (inactive)	17.9 µM (inactive)	13.4 µM (inactive)	15.6 µM (inactive)	20.8 µM (inactive)	19.2 µM (inactive)	15.3 µM (inactive)	12.7 µM (inactive)	14.3 µM (inactive)
COc1cc2c(cc1OC)C1Cc3ccccc3CCN1CC2 (stereo not given)	> 100 µM (inactive)	> 100 µM (inactive)	> 100 µM (inactive)	> 100 µM (inactive)	> 100 µM	> 100 µM (inactive)	> 100 µM (inactive)	> 100 µM (inactive)	> 100 µM (inactive)	> 100 µM (inactive)	> 100 µM (inactive)	> 100 µM (inactive)	> 100 µM (inactive)	> 100 µM (inactive)	> 100 µM (inactive)	> 100 µM (inactive)	62.1 µM (inactive)	> 100 µM (inactive)	> 100 µM (inactive)
Cc1ccc(/N=N/c2c(C)nn(C(=O)CC(=O)Nc3ccc(Cl)cc3)c2C)cc1C	70.1 µM (inactive)	5.79 µM (inactive)	> 100 µM (inactive)	29.1 µM (inactive)	–	24.4 µM (inactive)	34 µM (inactive)	7.05 µM (inactive)	37.2 µM (inactive)	> 100 µM (inactive)	> 100 µM (inactive)	> 100 µM (inactive)	> 100 µM (inactive)	> 100 µM (inactive)	98.2 µM (inactive)	32.9 µM (inactive)	> 100 µM (inactive)	> 100 µM (inactive)	49.2 µM (inactive)
N#CC(=C1CCCCC1)c1nc2ccccc2o1	> 100 µM (inactive)	> 100 µM (inactive)	32.1 µM (inactive)	49.1 µM (inactive)	49.4 µM	35.2 µM (inactive)	> 100 µM (inactive)	58.7 µM (inactive)	83 µM (inactive)	32 µM (inactive)	80.7 µM (inactive)	> 100 µM (inactive)	66.8 µM (inactive)	52.8 µM (inactive)	> 100 µM (inactive)	47.4 µM (inactive)	56.9 µM (inactive)	–	> 100 µM (inactive)
C(=N\c1cc2cc(Sc3ccccc3)ccc2[nH]1)/c1ccccc1	1.83 µM (inactive)	> 12.5 µM (inactive)	> 12.5 µM (inactive)	> 12.5 µM (inactive)	> 12.5 µM	> 12.5 µM (inactive)	2.08 µM (inactive)	> 12.5 µM (inactive)	–	0.0931 µM (active)	> 12.5 µM (inactive)	4.28 µM (inactive)	> 12.5 µM (inactive)	> 12.5 µM (inactive)	–	> 12.5 µM (inactive)	> 12.5 µM (inactive)	> 12.5 µM (inactive)	–
Clc1ccc(CSC2=NCCN2)cc1Cl	21.3 µM (inactive)	15 µM (inactive)	18.8 µM (inactive)	5.36 µM (inactive)	15 µM	10.9 µM (inactive)	23.4 µM (inactive)	19.8 µM (inactive)	18.9 µM (inactive)	16.9 µM (inactive)	15.2 µM (inactive)	16 µM (inactive)	15.6 µM (inactive)	11.6 µM (inactive)	19.3 µM (inactive)	15.9 µM (inactive)	10.4 µM (inactive)	16.2 µM (inactive)	16.7 µM (inactive)
COc1ccc(C2=Nc3cc(C)c(C)cc3NC(c3ccccc3)C2)cc1 (stereo not given)	> 100 µM (inactive)	> 100 µM (inactive)	> 100 µM (inactive)	17.3 µM (inactive)	41.4 µM	18.7 µM (inactive)	> 100 µM (inactive)	> 100 µM (inactive)	> 100 µM (inactive)	> 100 µM (inactive)	> 100 µM (inactive)	50.2 µM (inactive)	> 100 µM (inactive)	> 100 µM (inactive)	> 100 µM (inactive)	> 100 µM (inactive)	> 100 µM (inactive)	> 100 µM (inactive)	> 100 µM (inactive)
COc1cc(C2c3[nH]c4ccccc4c3C[C@H]3COC(=O)N23)cc(OC)c1OC (stereo not given in full)	0.0745 µM (active)	0.214 µM (active)	0.163 µM (active)	0.0406 µM (active)	0.0471 µM	0.0336 µM (active)	0.0467 µM (active)	0.0219 µM (active)	–	0.0552 µM (active)	0.0611 µM (active)	0.0213 µM (active)	0.0776 µM (active)	1.55 µM (inactive)	0.112 µM (active)	0.178 µM (active)	0.0411 µM (active)	0.051 µM (active)	5.36 µM (inactive)
